Assay results taken from patent US7151116B2, “Apoptolidin analogs and derivatives for inducing apoptosis in transformed cells” (Board of Trustees of The Leland Stanford Junior University, priority 2003, dated 2006).
Read-outs that look alike come from different tables or passages of the source.

Columns and labels:
[1] = target: T1, mitochondrial F0F1-ATPase (Saccharomyces cerevisiae, UniProt P00830+P07251+P38077); experiment: F0F1-ATPase inhibition assay in isolated yeast mitochondria (20 minute cell-free assay); type: biochemical; conditions: for F0F1-ATPase inhibitory activity (in words): comparison
T1 construct: endogenous in cells; host or cells: isolated yeast mitochondria (cell-free preparation)
Protocol: The ability of isoapoptolidin and the apoptolidin derivatives described in Examples 3 and 4 to inhibit F0F1-ATPase in isolated yeast mitochondria was studied. The F0F1-ATPase assay is a rapid 20 minute cell-free assay.
The functionalized macrolide and δ-lactone fragments were assayed for inhibitory activity against mitochondrial F0F1-ATPase.

[2] = system: 60 human cancer cell lines (NCI 60); conditions: of 37,000 compounds tested by the National Cancer Institute; cited from earlier work
[3] = Stability of solutions on storage (NMR, HPLC, UV-vis); type: physicochemical; conditions: for conversion in dilute aqueous solution: ambient temperature, HPLC or UV-vis
From the text: To study the kinetic parameters of isoapoptolidin, the conversion between apoptolidin and isoapoptolidin under biological assay and chemical isolation conditions was observed. […] During this time, no conversion to isoapoptolidin is observed, either by NMR or HPLC. […] Given that the conversion between apoptolidin and isoapoptolidin goes in both directions, it is likely that these two compounds are in equilibrium.

normal fibroblasts = conditions: Seto et al., 1997; cited from earlier work
[4] = system: untransformed rat glial cells; conditions: Seto et al., 1997; cited from earlier work
[5] = system: rat glial cells transformed with the adenovirus E1A or E1A/E1B19K/E1B54K oncogenes; conditions: Seto et al., 1997; cited from earlier work
[6] = Apoptolidin-isoapoptolidin equilibrium kinetics in PBS at 37° C. (reverse-phase HPLC); type: physicochemical; conditions: solution starting from the labelled isomer (Q(t) = 0 at t = 0: apoptolidin, Q(t) = ∞ at t = 0: isoapoptolidin); for k1: apoptolidin to isoapoptolidin; for k−1: isoapoptolidin to apoptolidin
Protocol: (§1) To measure the kinetic parameters of apoptolidin and isoapoptolidin, solutions of both compounds in PBS (Dulbecco's phosphate buffered saline) were prepared and incubated at 37° C. in sealed reaction vessels. Periodically, the components present in the solutions were quantified using reverse-phase HPLC. Baseline separation was achieved using a 150×4.6 mm C18/5μ column eluting with a water/acetonitrile gradient from 40% to 90% over 30 min. After normalization for the difference in extinction coefficients (λobs=254 nm), these values were plotted and the rate constants k1 and k−1 were extracted by fitting the data to the integrated rate expression for a simple equilibrium. The kinetic parameters for apoptolidin and isoapoptolidin equilibrium over time in PBS at 37° C. The relative amounts of apoptolidin and isoapoptolidin at various time points are plotted in FIG. 2.

[7] = Stability in the presence of all F0F1-ATPase assay components; type: physicochemical; conditions: up to 24 hours
Protocol: To test the ability of isoapoptolidin to inhibit F0F1-ATPase activity, solutions of isoapoptolidin and apoptolidin including all assay components were analyzed for isomerization. After 20 minutes at 37° C., less than 12% conversion was detected.
To test the ability of apoptolidin derivatives to inhibit F0F1-ATPase activity, compound 16 from Table 3 was exposed to all of the assay components for up to 24 hours.

[8] = Isomerization in basic CD3OD (LCMS and NMR); type: physicochemical
From the text: To prevent ring expansion, the primary alcohol may be efficiently converted to a methyl ether or benzoate ester by way of treatment with Meerwein's salt or benzoyl anhydride followed by deprotection, under this procedure, the following macrocycles resulted, respectively: Compound 23: Q^1=Q^2=Q^3=Q^4=Q^5=Q^7=H; Q^6=R^1=R^2=R^3=R^4=CH3 Compound 24: Q^1=Q^2=Q^3=Q^4=Q^5=Q^7=H; Q^6=[…]; R^1=R^2=R^3=R^4=CH3

Stability in PBS (LC-MS) = type: physicochemical; conditions: conditions that promote apoptolidin/isoapoptolidin isomerization
Protocol: as §1
This experiment leads to the conclusion that while derivatization of apoptolidin at C-20 blocks isomerization to isoapoptolidin, the resulting derivatives (compounds 18 and 20) undergo other transformations.

Question: With `COC[C@@H](C[C@H]1O[C@@](O)([C@H](O)[C@@H]2C[C@H](OC)[C@@H](O)CC/C=C(C)/C=C/[C@@H](O[C@@H]3O[C@@H](C)[C@H](OC)[C@@H](O)[C@@H]3O)[C@H](C)/C=C(C)/C=C(C)/C=C(\C)C(=O)O2)[C@H](C)[C@@H](OC(C)=O)[C@H]1C)O[C@H]1C[C@](C)(O)[C@@H](O[C@H]2C[C@@H](OC)[C@H](OC(C)=O)[C@@H](C)O2)[C@H](C)O1` [Compound 14] as the molecule, how does the IC50 [1] read?
Answer: 400 ± 500 nM

Question: With `COC[C@@H](C[C@H]1O[C@@](O)([C@H](O)[C@@H]2C[C@H](OC)[C@@H](O)CC/C=C(C)/C=C/[C@@H](O[C@@H]3O[C@@H](C)[C@H](OC)[C@@H](O)[C@@H]3O)[C@H](C)/C=C(C)/C=C(C)/C=C(\C)C(=O)O2)[C@H](C)[C@@H](O)[C@H]1C)O[C@H]1C[C@](C)(O)[C@@H](O[C@H]2C[C@@H](OC)[C@H](O)[C@@H](C)O2)[C@H](C)O1` [Apoptolidin] as the molecule, how does the “rank of selectivity among cytotoxic agents” value [2] read?
Answer: among the top 0.1% most selective cytotoxic agents

Question: What about the IC50 [1] of the same molecule?
Answer: 700 ± 500 nM

Question: And the “conversion in dilute aqueous solution” value [3]?
Answer: convert to isoapoptolidin

Question: What about the “stable in solution (no conversion to isoapoptolidin by NMR or HPLC)” value ([3]; −20° C., dissolved in chloroform or methylene chloride) of the same molecule?
Answer: up to three months

Question: What about the cytotoxic effect (normal fibroblasts) of the same molecule?
Answer: no cytotoxic effect

Question: And the cytotoxic effect [4]?
Answer: no cytotoxic effect

Question: And the induction of apoptosis [5]?
Answer: capable of inducing apoptosis

Question: What about the Keq [6] of the same molecule?
Answer: 0.0616

Question: What about the k1 [6] of the same molecule?
Answer: 0.0656 h⁻¹

Question: What about the “k−1” value [6] of the same molecule?
Answer: 0.106 h⁻¹

Question: With `COC[C@@H](C[C@H]1O[C@@](O)([C@H](O)[C@@H]2C[C@H](OC)[C@@H](OC(C)=O)CC/C=C(C)/C=C/[C@@H](O[C@@H]3O[C@@H](C)[C@H](OC)[C@@H](O)[C@@H]3O)[C@H](C)/C=C(C)/C=C(C)/C=C(\C)C(=O)O2)[C@H](C)[C@@H](O)[C@H]1C)O[C@H]1C[C@](C)(O)[C@@H](O[C@H]2C[C@@H](OC)[C@H](O)[C@@H](C)O2)[C@H](C)O1` [Compound 16] as the molecule, how does the “hydrolysis (ESIMS)” value [7] read?
Answer: no hydrolysis was detected

Question: What about the IC50 [1] of the same molecule?
Answer: 800 ± 500 nM

Question: Which IC50 [1] does the source give for `COC[C@@H](C[C@H]1O[C@@](O)([C@H](O)[C@@H]2C[C@H](OC)[C@@H](O)CC/C=C(C)/C=C/[C@@H](O[C@@H]3O[C@@H](C)[C@H](OC)[C@@H](O)[C@@H]3O)[C@H](C)/C=C(C)/C=C(C)/C=C(\C)C(=O)O2)[C@H](C)[C@@H](O)[C@H]1C)O[C@H]1C[C@](C)(O)[C@@H](O[C@H]2C[C@@H](OC)[C@H](OC(C)=O)[C@@H](C)O2)[C@H](C)O1` [Compound 15] here?
Answer: 800 ± 500 nM

Question: For `COC[C@@H](C[C@H]1O[C@@](OC)([C@H](O)[C@@H]2C[C@H](OC)[C@@H](O)CC/C=C(C)/C=C/[C@@H](O[C@@H]3O[C@@H](C)[C@H](OC)[C@@H](O)[C@@H]3O)[C@H](C)/C=C(C)/C=C(C)/C=C(\C)C(=O)O2)[C@H](C)[C@@H](O)[C@H]1C)O[C@H]1C[C@](C)(O)[C@@H](O[C@H]2C[C@@H](OC)[C@H](O)[C@@H](C)O2)[C@H](C)O1` [Compound 1], which IC50 [1] is on record?
Answer: 2300 ± 500 nM

Question: For `COC[C@@H](C[C@H]1O[C@@](O)([C@H](O)[C@@H]2C[C@H](OC)[C@@H](O)CC/C=C(C)/C=C/[C@@H](O[C@@H]3O[C@@H](C)[C@H](OC)[C@@H](OC(C)=O)[C@@H]3O)[C@H](C)/C=C(C)/C=C(C)/C=C(\C)C(=O)O2)[C@H](C)[C@@H](O)[C@H]1C)O[C@H]1C[C@](C)(O)[C@@H](O[C@H]2C[C@@H](OC)[C@H](O)[C@@H](C)O2)[C@H](C)O1` [Compound 17], which IC50 [1] is on record?
Answer: 400 ± 500 nM

Question: Which IC50 [1] does the source give for `COC[C@@H](C[C@H]1O[C@@](O)([C@H](O)[C@@H]2C[C@H](OC)[C@@H](O)CC/C=C(C)/C=C/[C@@H](O[C@@H]3O[C@@H](C)[C@H](OC)[C@@H](O)[C@@H]3OC(=O)c3ccccc3)[C@H](C)/C=C(C)/C=C(C)/C=C(\C)C(=O)O2)[C@H](C)[C@@H](O)[C@H]1C)O[C@H]1C[C@](C)(O)[C@@H](O[C@H]2C[C@@H](OC)[C@H](O)[C@@H](C)O2)[C@H](C)O1` [Compound 3] here?
Answer: 300 ± 500 nM

Question: What does the source list for `CO[C@@H]1[C@@H](O)[C@H](O)[C@H](O[C@@H]2/C=C/C(C)=C/CC[C@H](O)[C@@H](OC)C[C@@H](CO)OC(=O)/C(C)=C/C(C)=C/C(C)=C/[C@H]2C)O[C@H]1C` [Compound 22]?
Answer: IC50 ([1]; Table 6, apoptolidin oxidative cleavage products, mitochondrial F0F1-ATPase, read-out: IC50): 16000 ± 5000 nM; F0F1-ATPase inhibitory activity (in words) [1]: potency comparable to isoapoptolidin; isomerization to ring expanded isomer [8]: slowly isomerized to its ring expanded isomer

Question: What does the source list for `COC[C@@H](C[C@H]1O[C@@](O)([C@H](OC)[C@@H]2C[C@H](OC)[C@@H](O)CC/C=C(C)/C=C/[C@@H](O[C@@H]3O[C@@H](C)[C@H](OC)[C@@H](O)[C@@H]3O)[C@H](C)/C=C(C)/C=C(C)/C=C(\C)C(=O)O2)[C@H](C)[C@@H](O)[C@H]1C)O[C@H]1C[C@](C)(O)[C@@H](O[C@H]2C[C@@H](OC)[C@H](O)[C@@H](C)O2)[C@H](C)O1` [Compound 20]?
Answer: stability in PBS (Stability in PBS (LC-MS)): partially convert to a second isomeric compound over a period of several hours; IC50 [1]: 2800 ± 500 nM

Question: For `COC[C@@H](C[C@H]1O[C@@](O)([C@H](OC(C)=O)[C@@H]2C[C@H](OC)[C@@H](O)CC/C=C(C)/C=C/[C@@H](O[C@@H]3O[C@@H](C)[C@H](OC)[C@@H](O)[C@@H]3O)[C@H](C)/C=C(C)/C=C(C)/C=C(\C)C(=O)O2)[C@H](C)[C@@H](O)[C@H]1C)O[C@H]1C[C@](C)(O)[C@@H](O[C@H]2C[C@@H](OC)[C@H](O)[C@@H](C)O2)[C@H](C)O1` [Compound 18], which “stability in PBS” value (Stability in PBS (LC-MS)) is on record?
Answer: unstable under these conditions, producing several new compounds over a five hour period

Question: What about the IC50 [1] of the same molecule?
Answer: 1100 ± 500 nM

Question: Which IC50 [1] does the source give for `COC[C@@H](C[C@H]1O[C@@](O)([C@@H]2OC(=O)/C(C)=C/C(C)=C/C(C)=C/[C@@H](C)[C@H](O[C@@H]3O[C@@H](C)[C@H](OC)[C@@H](O)[C@@H]3O)/C=C/C(C)=C/CC[C@H](O)[C@@H](OC)C[C@@H]2O)[C@H](C)[C@@H](O)[C@H]1C)O[C@H]1C[C@](C)(O)[C@@H](O[C@H]2C[C@@H](OC)[C@H](O)[C@@H](C)O2)[C@H](C)O1` [Isoapoptolidin] here?
Answer: 17000 ± 5000 nM

Question: And the “F0F1-ATPase inhibitory activity (in words)” value [1]?
Answer: reduced F0F1-ATPase inhibitory activity over apoptolidin

Question: What about the “conversion in dilute aqueous solution” value [3] of the same molecule?
Answer: convert to apoptolidin

Question: What about the “stable as a solution” value ([3]; −20° C., methanol) of the same molecule?
Answer: up to six months

Question: What about the Keq [6] of the same molecule?
Answer: 0.638

Question: What about the k1 [6] of the same molecule?
Answer: 0.0626 h⁻¹

Question: And the “k−1” value [6]?
Answer: 0.0982 h⁻¹
